Reference: patent publication US5248680A, “Zwitterionic compounds and their n-halo derivatives for use in the treatment of clinical conditions” (Bloomfield D.A., priority 1990, dated 1993)
Where two headings read alike, the source gives them in different places.

Tests used:
[1] = Skin penetration and percutaneous absorption of 14C-HEPES after a single topical dose; format: in vivo, human; conditions: for Mean urinary excretion of radioactivity: mean (S.D.), up to 120 hours
Procedure: The skin penetration and percutaneous absorption of radioactivity following topical administration of a single does of ^14 C-HEPES (approximately 100 mg 5% cream containing 70 uCi ^14 C) was investigated in two groups of six healthy male volunteers. The dose was applied to intact skin in one group and to skin stripped 10 times with scotch tape in the second group. The unabsorbed material was removed after 12 hours and the area of application was stripped 10 times in order to determine skin penetration. Blood, urine and faeces samples were collected up to 120 hours after dose application for assessment of total radioactivity.

[2] = test system: peripheral blood neutrophils; experiment: Chemiluminescence (reactive oxidant production) of peripheral blood neutrophils stimulated with calcium ionophore; format: cell-based; conditions: Homo sapiens, Neutrophil, 10 mM HEPES, mean ± S.E.M., read-out: Chemiluminesence production by neutrophils
Excerpt: Patients were selected with mild to moderate plaque-type psoriasis on the basis of clinical and histological evidence of disease. Normal volunteers were selected from laboratory personnel without personal or family history of inflammatory disease. Disease control groups included: a) patients with eczema, acne and dermatitis herpetiformis; and b) patients with Crohn's disease and ulcerative colitis. Blood samples from each subject were drawn into sodium heparin Vacutainers® (Vacutainer is a Trade Mark). The inflammatory cells (neutrophils) were isolated by dextran sedimentation and FICOLL-PAQUE®(FICOLL-PLAQUE is a Trade Mark) gradient centrifugation. Viability and purity were assessed by fluorescence microscopy, using ethidium bromide and acridine orange staining. […] Chemiluminescence activity of the peripheral blood neutrophils was tested using the method of Bloomfield, F. J. and Young, M. M. (Inflammation, (1982) 6, 257, hereby incorporated by reference), using calcium ionophore (2μ Molar) as stimulant instead of opsonized zymosan. Chemiluminescence is a measure of the production of reactive oxidants by neutrophils in response to an inflammatory stimulus. It was observed that there was significant reduction in chemiluminescence activity by neutrophils in the taurine-treated and HEPES-treated cells compared to control cells in all groups.

neutrophils [3] = experiment: Degranulation of lysosomal enzymes by neutrophils stimulated with calcium ionophore; format: cell-based, human; conditions: for activity at 10000 µM: Homo sapiens, Neutrophil, 10 mM HEPES, mean
Excerpt: (§1) Patients were selected with mild to moderate plaque-type psoriasis on the basis of clinical and histological evidence of disease. Normal volunteers were selected from laboratory personnel without personal or family history of inflammatory disease. Disease control groups included: a) patients with eczema, acne and dermatitis herpetiformis; and b) patients with Crohn's disease and ulcerative colitis.
(§2) Blood samples from each subject were drawn into sodium heparin Vacutainers® (Vacutainer is a Trade Mark). The inflammatory cells (neutrophils) were isolated by dextran sedimentation and FICOLL-PAQUE®(FICOLL-PLAQUE is a Trade Mark) gradient centrifugation. Viability and purity were assessed by fluorescence microscopy, using ethidium bromide and acridine orange staining.
Stimulation of the inflammatory process in neutrophils, not only activates the respiratory burst, but as a consequence, is also associated with release of lysosomal enzymes from the cells in a process called degranulation. Degranulation of lysosomal enzymes was stimulated in neutrophils from each group of subjects, using calcium ionophore as inflammatory stimulant.

myeloperoxidase [4] = experiment: Myeloperoxidase activity of neutrophils after preincubation with zwitterion; format: cell-based, human; conditions: 10 mM HEPES, mean ± S.E.M.
Excerpt: as §1, §2

catalase = experiment: Catalase activity of neutrophils after preincubation; format: cell-based, human; conditions: neutrophils preincubated with HEPES or taurine; data not shown
neutrophils [5] = experiment: Hypochlorous acid production by neutrophils; format: cell-based; conditions: Homo sapiens, Neutrophil, 10 mM HEPES, mean ± S.E.M.
Excerpt: as §1, §2

neutrophils [6] = experiment: Leukotriene B4 in supernatants of stimulated neutrophils; format: cell-based, human; conditions: 10 mM HEPES, mean ± S.E.M.; for activity at 10000 µM: Homo sapiens, Neutrophil, read-out: Leukotriene B4 production by neutrophils
Excerpt: as §1, §2
(§3) It was therefore proposed to test the hypothesis that HEPES could inactivate leukotriene B4 by indirect stimulation of MPO leading to increased production of hypochlorous acid from cellular hydrogen peroxide.
For the methodology used in the in vitro studies hereinafter described reference should be made to McLoughlin, D. M. et al. Biochem. Soc. Trans. (1991) 19:73-78 hereby incorporated by reference, except where otherwise stated.

monocytes = experiment: Leukotriene B4 in stimulated monocytes; format: cell-based, human; conditions: preincubation with 10 mM HEPES or 40 mM taurine; data not shown
Excerpt: as §3

[7] = test system: carrageenan induced paw oedema; experiment: Carrageenan-induced paw oedema in rats; format: in vivo, rat
Procedure: The studies were conducted on inbred Wistar strain albino rats (120-180 g) of either sex. The rats were housed in colony cages at an ambient temperature of 25°±2° C. and fed on standard pellet chow. The rats were anaesthetized using pentobarbitone sodium, their hind paws were marked and the volume measured. […] The control animals were injected with 10 μl of 0.9% saline solution. […] One hour following the carrageenan injection the hind paw volume was measured again. A 5 ml blood sample was taken from each animal into sodium heparin Vacutainers. Chemiluminescence activity was assayed in the PBMC isolated from each animal.
These studies were also conducted on inbred Wistar strain albino rats (120-180 g) of either sex. The rats were anaesthetized using pentobarbitone sodium prior to marking each hind paw and measuring paw volume. […] The control animals received 0.5 ml of 0.9% NaCl subcutaneously. 30 min after the injections were administered, paw oedema was induced using carrageenan. One hour following carrageenan administration the hind paw volume was measured. A 5 ml blood sample was taken from each animal into sodium heparin Vacutainers and used for chemiluminescence measurement.

myeloperoxidase [8] = experiment: Binding of zwitterion to myeloperoxidase (preliminary studies)
[9] = Normal + iodide (1 mM potassium iodide)

Q: For `O=S(=O)(O)CCN1CCN(CCO)CC1` [HEPES, N-2-hydroxyethylpiperazine-N'-2-ethanesulphonic acid], which “tolerability of single topical dose” value ([1]; intact and stripped skin groups) is on record?
A: well tolerated

Q: And the “Mean urinary excretion of radioactivity” value ([1]; intact skin group)?
A: 0.07+0.08% of the applied dose

Q: And the “radioactivity in 48-72 hour faecal sample” value ([1]; one subject of the stripped skin group)?
A: 0.11 % of the applied dose

Q: And the “abnormalities in biochemistry, haematology and urinalysis screens” value ([1]; single topical dose)?
A: not considered to be related

Q: And the “radioactivity in plasma or faecal samples” value ([1]; single topical dose approx. 100 mg 5% cream, intact and stripped skin groups, samples up to 120 hours)?
A: No radioactivity was detected

Q: And the “Mean urinary excretion of radioactivity” value ([1]; stripped skin group)?
A: 0.20±0.22% of the applied dose

Q: What about the activity at 10000 µM ([2]; Normal) of the same molecule?
A: 28.8 ± 4.24%

Q: What about the activity at 10000 µM ([2]; Psoriasis) of the same molecule?
A: 26.9 ± 3.25%

Q: And the activity at 10000 µM ([2]; disease controls (a) eczema, acne, dermatitis herpetiformis)?
A: 28.8 ± 3.84%

Q: And the activity at 10000 µM ([2]; disease controls (b) Crohn's disease, ulcerative colitis)?
A: 25.4 ± 6.4%

Q: What about the activity at 10000 µM (neutrophils [3]; Normal) of the same molecule?
A: 104%

Q: And the activity at 10000 µM (neutrophils [3]; Psoriasis)?
A: 104%

Q: What about the activity at 10000 µM (neutrophils [3]; disease controls (a)) of the same molecule?
A: 87.2%

Q: What about the “degranulation by preincubated neutrophils compared to control cells” value (neutrophils [3]; result in words, taurine data not shown) of the same molecule?
A: no difference in degranulation

Q: What about the “Myeloperoxidase activity of neutrophils” value (myeloperoxidase [4]; Normal) of the same molecule?
A: 228 ± 25.4 percentage activity of control

Q: What about the “Myeloperoxidase activity of neutrophils” value (myeloperoxidase [4]; Psoriasis) of the same molecule?
A: 247 ± 30.1 percentage activity of control

Q: What about the “Myeloperoxidase activity of neutrophils” value (myeloperoxidase [4]; disease controls (a)) of the same molecule?
A: 198 ± 17.1 percentage activity of control

Q: And the “Myeloperoxidase activity of neutrophils” value (myeloperoxidase [4]; disease controls (b))?
A: 211 ± 56.4 percentage activity of control

Q: And the “effect on catalase activity” value (catalase)?
A: no effect on catalase activity

Q: What about the activity at 10000 µM (neutrophils [5]; Normal) of the same molecule?
A: 211 ± 12.5%

Q: What about the activity at 10000 µM (neutrophils [5]; Psoriasis) of the same molecule?
A: 193 ± 10.7%

Q: What about the activity at 10000 µM (neutrophils [5]; disease controls (a)) of the same molecule?
A: 152 ± 8.3%

Q: And the “Leukotriene B4 production by neutrophils” value (neutrophils [6]; [9])?
A: no measurable leukotriene B4

Q: What about the activity at 10000 µM (neutrophils [6]; [9]) of the same molecule?
A: 0%

Q: What about the activity at 10000 µM (neutrophils [6]; Normal) of the same molecule?
A: 55.8 ± 8.9%

Q: What about the activity at 10000 µM (neutrophils [6]; Psoriasis) of the same molecule?
A: 22.4 ± 6.62%

Q: What about the activity at 10000 µM (neutrophils [6]; disease controls (a)) of the same molecule?
A: 24.9 ± 8.99%

Q: What about the activity at 10000 µM (neutrophils [6]; disease controls (b)) of the same molecule?
A: 16.7 ± 6.42%

Q: And the “reduction of leukotriene B4 in monocytes” value (monocytes)?
A: also demonstrated in monocytes

Q: And the “percentage increase in paw volume” value ([7]; I.P. 500 μg HEPES, 1 h after carrageenan, mean ± S.E.M.)?
A: 23 ± 4 percentage increase in paw volume

Q: What about the “reduction in paw oedema” value ([7]; intraperitoneal 500 μg HEPES, versus control) of the same molecule?
A: 50%

Q: And the “binding to the enzyme (MPO)” value (myeloperoxidase [8])?
A: did not bind to the enzyme
